Experimental data reported in PubChem BioAssay AID192 (DTP/NCI, 2004).
“And” between values parts separate entries of the source, which are not always exact repeats. Identical values can stand only once. Toxic doses and inconclusive results are not listed.

System: BDF1 mice, B16 melanoma ip, median survival T/C
Test: NCI In Vivo Anticancer Drug Screen. Data for tumor model B16 Melanoma (intraperitoneal) in B6D2F1 (BDF1) mice
Details: endpoint: median survival time, higher = longer survival
Outline: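 Transplantable tumor model; survival or tumor size measured; reported as T/C, treated over vehicle control.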

[1] = dose: 1.0 mg/kg/injection, schedule: Q01DX009 (ip), vehicle: saline
[2] = dose: 25.0 mg/kg/injection, schedule: Q01DX009 (ip), vehicle: Klucel (hydroxypropylcellulose) (HPC)
[3] = dose: 50.0 mg/kg/injection, schedule: Q01DX009 (ip), vehicle: Klucel (hydroxypropylcellulose) (HPC)
[4] = dose: 12.5 mg/kg/injection, schedule: Q01DX009 (ip), vehicle: saline with Tween-80
[5] = dose: 25.0 mg/kg/injection, schedule: Q01DX009 (ip), vehicle: saline with Tween-80
[6] = dose: 50.0 mg/kg/injection, schedule: Q01DX009 (ip), vehicle: saline with Tween-80
[7] = dose: 100.0 mg/kg/injection, schedule: Q01DX009 (ip), vehicle: Klucel (hydroxypropylcellulose) (HPC)
[8] = dose: 200.0 mg/kg/injection, schedule: Q01DX009 (ip), vehicle: Klucel (hydroxypropylcellulose) (HPC)
[9] = dose: 400.0 mg/kg/injection, schedule: Q01DX009 (ip), vehicle: Klucel (hydroxypropylcellulose) (HPC)

Q: For `CC(C)CCCCCCCCCCCCC(=O)NCC(=O)NC1C(O)C(O)C(Nc2ncnc3nc[nH]c23)OC1C(O)CO` (configuration not stated), which T/C (dose: 0.25 mg/kg/injection, schedule: Q01DX009 (ip), vehicle: Klucel (hydroxypropylcellulose) (HPC)) is on record?
A: 114 % of control

Q: What about the T/C [1] of the same molecule?
A: 151 % of control

Q: What about the T/C (dose: 62.5 micrograms/kg/injection, schedule: Q01DX009 (ip), vehicle: saline) of the same molecule?
A: 98 % of control

Q: And the T/C (dose: 125.0 micrograms/kg/injection, schedule: Q01DX009 (ip), vehicle: saline)?
A: 98 % of control

Q: And the T/C (dose: 250.0 micrograms/kg/injection, schedule: Q01DX009 (ip), vehicle: saline)?
A: 98 % of control

Q: And the T/C (dose: 500.0 micrograms/kg/injection, schedule: Q01DX009 (ip), vehicle: saline)?
A: 107 % of control

Q: For `CN1CCN(c2ccc(Cl)cc2)CC1`, which T/C [2] is on record?
A: 100 % of control

Q: What about the T/C [3] of the same molecule?
A: 100 % of control

Q: With `CC1(C)OC2C(COC(=O)c3ccc([N+](=O)[O-])cc3)OC(NC(=O)N(CCCl)N=O)C2O1` (configuration not stated) as the molecule, how does the T/C (dose: 6.25 mg/kg/injection, schedule: Q01DX009 (ip), vehicle: saline with Tween-80) read?
A: 158 % of control

Q: And the T/C [4]?
A: 215 % of control

Q: What about the T/C [5] of the same molecule?
A: 204 % of control and 283 % of control

Q: What about the T/C [6] of the same molecule?
A: 206 % of control

Q: Which results are given for `CCNCc1cc(Nc2nc(NC3CCC(N(C)C)CC3)c3ccccc3n2)ccc1OC` (configuration not stated)?
A: T/C (dose: 2.5 mg/kg/injection, schedule: Q01DX009 (ip), vehicle: saline): 105 % of control; T/C (dose: 5.0 mg/kg/injection, schedule: Q01DX009 (ip), vehicle: saline): 103 % of control; T/C (dose: 10.0 mg/kg/injection, schedule: Q01DX009 (ip), vehicle: saline): 114 % of control; T/C (dose: 20.0 mg/kg/injection, schedule: Q01DX009 (ip), vehicle: saline): 122 % of control; T/C (dose: 40.0 mg/kg/injection, schedule: Q01DX009 (ip), vehicle: saline): 112 % of control

Q: Which T/C (dose: 0.32 mg/kg/injection, schedule: Q01DX009 (ip), vehicle: water) does the source give for `O=S(=O)(O)O.[NH-]C1CCCCC1[NH-].[Pt+2]` (configuration not stated) here?
A: 156 % of control and 167 % of control

Q: What about the T/C (dose: 0.63 mg/kg/injection, schedule: Q01DX009 (ip), vehicle: dextrose) of the same molecule?
A: 175 % of control

Q: What about the T/C (dose: 0.63 mg/kg/injection, schedule: Q04DX003 (ip), vehicle: water) of the same molecule?
A: 160 % of control

Q: And the T/C (dose: 1.25 mg/kg/injection, schedule: Q01DX009 (ip), vehicle: dextrose)?
A: 163 % of control

Q: And the T/C (dose: 1.25 mg/kg/injection, schedule: Q04DX003 (ip), vehicle: water)?
A: 163 % of control

Q: What about the T/C (dose: 3.0 mg/kg/injection, schedule: Q01DX009 (ip), vehicle: water) of the same molecule?
A: 150 % of control

Q: And the T/C (dose: 4.0 mg/kg/injection, schedule: Q01DX009 (ip), vehicle: water)?
A: 150 % of control

Q: What about the T/C (dose: 5.0 mg/kg/injection, schedule: Q04DX003 (ip), vehicle: water) of the same molecule?
A: 155 % of control

Q: `CC1(C)OC(CI)C(COS(C)(=O)=O)O1` (configuration not stated) was tested. Which T/C [4] did it give?
A: 97 % of control

Q: What about the T/C [5] of the same molecule?
A: 97 % of control

Q: What about the T/C [6] of the same molecule?
A: 96 % of control and 100 % of control

Q: How did the T/C (dose: 8.0 mg/kg/injection, schedule: Q01DX009 (ip), vehicle: saline) turn out when `Nc1nncs1` was run?
A: 104 % of control

Q: And the T/C (dose: 16.0 mg/kg/injection, schedule: Q01DX009 (ip), vehicle: other)?
A: 111 % of control

Q: What about the T/C (dose: 16.0 mg/kg/injection, schedule: Q01DX009 (ip), vehicle: saline) of the same molecule?
A: 99 % of control

Q: What about the T/C (dose: 32.0 mg/kg/injection, schedule: Q01DX009 (ip), vehicle: other) of the same molecule?
A: 106 % of control

Q: What about the T/C (dose: 32.0 mg/kg/injection, schedule: Q01DX009 (ip), vehicle: saline) of the same molecule?
A: 105 % of control

Q: What about the T/C (dose: 64.0 mg/kg/injection, schedule: Q01DX009 (ip), vehicle: other) of the same molecule?
A: 104 % of control

Q: Which T/C (dose: 0.1 micrograms/kg/injection, schedule: Q01DX009 (ip), vehicle: methylcellulose (MC)) does the source give for `C=C(OC)C(Nc1cc(OC)c(OC)cc1C(=O)OC1CC(O[C@@H]2C(=O)C(NC(=O)OC)=C3/C(=C\CSSSC)[C@]2(O)C#C/C=C\C#C[C@@H]3OC2OC(C)C(NOC3CC(O)C(SC)C(C)O3)C(O)C2OC2CC(OC)C(NCCC)CO2)OC(C)C1O)OC` (some centres not stated) here?
A: 178 % of control

Q: And the T/C (dose: 0.2 micrograms/kg/injection, schedule: Q01DX009 (ip), vehicle: methylcellulose (MC))?
A: 172 % of control

Q: What about the T/C (dose: 0.4 micrograms/kg/injection, schedule: Q01DX009 (ip), vehicle: methylcellulose (MC)) of the same molecule?
A: 175 % of control

Q: What about the T/C (dose: 0.4 micrograms/kg/injection, schedule: Q04DX003 (ip), vehicle: methylcellulose (MC)) of the same molecule?
A: 160 % of control

Q: What about the T/C (dose: 0.8 micrograms/kg/injection, schedule: Q01DX009 (ip), vehicle: methylcellulose (MC)) of the same molecule?
A: 182 % of control

Q: And the T/C (dose: 1.6 micrograms/kg/injection, schedule: Q01DX009 (ip), vehicle: methylcellulose (MC))?
A: 182 % of control

Q: And the T/C (dose: 1.6 micrograms/kg/injection, schedule: Q04DX003 (ip), vehicle: methylcellulose (MC))?
A: 168 % of control

Q: And the T/C (dose: 3.2 micrograms/kg/injection, schedule: Q04DX003 (ip), vehicle: methylcellulose (MC))?
A: 153 % of control

Q: And the T/C (dose: 6.4 micrograms/kg/injection, schedule: Q04DX003 (ip), vehicle: methylcellulose (MC))?
A: 106 % of control

Q: Which results are given for `F[B-](F)(F)F`?
A: T/C (dose: 12.5 mg/kg/injection, schedule: Q01DX009 (ip), vehicle: gum acacia): 104 % of control; T/C (dose: 25.0 mg/kg/injection, schedule: Q01DX009 (ip), vehicle: gum acacia): 114 % of control; T/C (dose: 50.0 mg/kg/injection, schedule: Q01DX009 (ip), vehicle: gum acacia): 117 % of control; T/C (dose: 100.0 mg/kg/injection, schedule: Q01DX009 (ip), vehicle: gum acacia): 105 % of control; T/C (dose: 200.0 mg/kg/injection, schedule: Q01DX009 (ip), vehicle: gum acacia): 107 % of control

Q: For `CCCCCCCCCC(=O)OCCN1CCN(CCCN2c3ccccc3Sc3ccc(C(F)(F)F)cc32)CC1`, which T/C (dose: 0.09 mg/kg/injection, schedule: Q01DX009 (ip), vehicle: alcohol) is on record?
A: 97 % of control

Q: What about the T/C (dose: 0.19 mg/kg/injection, schedule: Q01DX009 (ip), vehicle: alcohol) of the same molecule?
A: 123 % of control

Q: What about the T/C (dose: 0.39 mg/kg/injection, schedule: Q01DX009 (ip), vehicle: alcohol) of the same molecule?
A: 111 % of control

Q: `Cc1cc2nc(CBr)c(CBr)nc2cc1C` was tested. Which T/C (dose: 0.1 mg/kg/injection, schedule: Q01DX009 (ip), vehicle: saline with Tween-80) did it give?
A: 86 % of control

Q: What about the T/C (dose: 0.2 mg/kg/injection, schedule: Q01DX009 (ip), vehicle: saline with Tween-80) of the same molecule?
A: 86 % of control

Q: And the T/C (dose: 0.4 mg/kg/injection, schedule: Q01DX009 (ip), vehicle: saline with Tween-80)?
A: 92 % of control

Q: And the T/C (dose: 0.75 mg/kg/injection, schedule: Q01DX009 (ip), vehicle: saline with Tween-80)?
A: 107 % of control

Q: And the T/C (dose: 0.8 mg/kg/injection, schedule: Q01DX009 (ip), vehicle: saline with Tween-80)?
A: 94 % of control

Q: And the T/C (dose: 1.5 mg/kg/injection, schedule: Q01DX009 (ip), vehicle: saline with Tween-80)?
A: 97 % of control

Q: What about the T/C (dose: 3.0 mg/kg/injection, schedule: Q01DX009 (ip), vehicle: saline with Tween-80) of the same molecule?
A: 97 % of control

Q: And the T/C (dose: 6.0 mg/kg/injection, schedule: Q01DX009 (ip), vehicle: saline with Tween-80)?
A: 89 % of control

Q: With `O=C1CC2(C(=O)N1CN1CCOCC1)c1ccccc1-c1ccccc12` as the molecule, how does the T/C [2] read?
A: 103 % of control

Q: What about the T/C [3] of the same molecule?
A: 98 % of control

Q: What about the T/C [7] of the same molecule?
A: 98 % of control

Q: What about the T/C [8] of the same molecule?
A: 107 % of control

Q: What about the T/C [9] of the same molecule?
A: 115 % of control

Q: With `CC(NC(=O)C(C)NC(=O)OC(C)(C)C)C(=O)O` (configuration not stated) as the molecule, how does the T/C [5] read?
A: 92 % of control

Q: What about the T/C [6] of the same molecule?
A: 94 % of control

Q: And the T/C (dose: 100.0 mg/kg/injection, schedule: Q01DX009 (ip), vehicle: saline with Tween-80)?
A: 93 % of control

Q: What about the T/C (dose: 200.0 mg/kg/injection, schedule: Q01DX009 (ip), vehicle: saline with Tween-80) of the same molecule?
A: 92 % of control

Q: How did the T/C (dose: 50.0 mg/kg/injection, schedule: Q04DX003 (ip), vehicle: Klucel (hydroxypropylcellulose) (HPC)) turn out when `O=C1C(=C(C(F)(F)F)C(F)(F)F)CCc2ccccc21` was run?
A: 95 % of control

Q: What about the T/C (dose: 100.0 mg/kg/injection, schedule: Q04DX003 (ip), vehicle: Klucel (hydroxypropylcellulose) (HPC)) of the same molecule?
A: 95 % of control

Q: What about the T/C (dose: 200.0 mg/kg/injection, schedule: Q04DX003 (ip), vehicle: Klucel (hydroxypropylcellulose) (HPC)) of the same molecule?
A: 100 % of control

Q: What does the source list for `CCN(N=Nc1ccc(C)cc1)N=Nc1ccc(C)cc1`?
A: T/C [7]: 90 % of control; T/C [8]: 96 % of control; T/C [9]: 86 % of control

Q: How did the T/C (dose: 50.0 mg/kg/injection, schedule: Q01DX009 (ip), vehicle: other) turn out when `CCOC(=O)C(NC(N)=O)C(=O)OCC` was run?
A: 104 % of control

Q: And the T/C (dose: 100.0 mg/kg/injection, schedule: Q01DX009 (ip), vehicle: other)?
A: 104 % of control

Q: What about the T/C (dose: 200.0 mg/kg/injection, schedule: Q01DX009 (ip), vehicle: other) of the same molecule?
A: 103 % of control

Q: And the T/C (dose: 400.0 mg/kg/injection, schedule: Q01DX009 (ip), vehicle: other)?
A: 104 % of control

Q: How did the T/C (dose: 0.5 mg/kg/injection, schedule: Q01DX009 (ip), vehicle: saline) turn out when `CC(=O)OCC12CCC(C)=CC1OC1C(OS(C)(=O)=O)C(=O)C2(C)C12CO2` (configuration not stated) was run?
A: 101 % of control

Q: And the T/C [1]?
A: 95 % of control

Q: What about the T/C (dose: 2.0 mg/kg/injection, schedule: Q01DX009 (ip), vehicle: saline) of the same molecule?
A: 104 % of control

Q: What about the T/C (dose: 4.0 mg/kg/injection, schedule: Q01DX009 (ip), vehicle: saline) of the same molecule?
A: 88 % of control
